What was measured:
[1] = biological target: T1, MBP-TtProDH EE (apo-EE, reconstituted apo-EE) (Thermus thermophilus, UniProt Q72IB8, F10E/L12E, form not given); test: flavin fluorescence quenching titration; assay type: binding; conditions: 50 mM sodium phosphate, pH 7.4
T1 construct: gene TT_C1214; N-terminal MBP fusion kept; variant EE (F10E/L12E); E. coli BSV11 riboflavin auxotroph, apo form

[2] = biological target: T1, MBP-TtProDH EE (apo-EE, reconstituted apo-EE); test: flavin fluorescence quenching titration; conditions: very weak binding, data not shown; 200 nM riboflavin; 50 mM sodium phosphate, pH 7.4

T1 sequence (Q72IB8 whole entry F10E/L12E, form open, the tested form may be a part): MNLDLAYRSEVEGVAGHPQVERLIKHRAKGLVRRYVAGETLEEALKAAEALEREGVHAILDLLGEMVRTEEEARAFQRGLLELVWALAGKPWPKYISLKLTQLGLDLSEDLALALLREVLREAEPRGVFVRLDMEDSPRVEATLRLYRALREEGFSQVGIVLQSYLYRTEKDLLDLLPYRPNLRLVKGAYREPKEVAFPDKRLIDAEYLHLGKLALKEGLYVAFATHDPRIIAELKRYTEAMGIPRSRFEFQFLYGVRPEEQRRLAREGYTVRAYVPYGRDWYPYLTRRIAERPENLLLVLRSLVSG

## Cc1cc2nc3c(=O)[nH]c(=O)nc-3n(C[C@H](O)[C@H](O)[C@H](O)COP(=O)(O)OP(=O)(O)OC[C@H]3O[C@@H](n4cnc5c(N)ncnc54)[C@H](O)[C@@H]3O)c2cc1C [FAD]
[1]; apoenzyme titrated into 200 nM FAD
  Kd: 18 ± 0.5 nM

## Cc1cc2nc3c(=O)[nH]c(=O)nc-3n(C[C@H](O)[C@H](O)[C@H](O)COP(=O)(O)O)c2cc1C [FMN]
[1]; apoenzyme titrated into 200 nM FMN
  Kd: 19.5 ± 0.8 nM

## Cc1cc2nc3c(=O)[nH]c(=O)nc-3n(C[C@H](O)[C@H](O)[C@H](O)CO)c2cc1C [riboflavin]
[2]
  flavin fluorescence quenching titration: riboflavin shows a very weak binding to the apoenzyme (data not shown)

Source: PMC5335563, “Proline dehydrogenase from Thermus thermophilus does not discriminate between FAD and FMN as cofactor” (Scientific Reports, 2017)
